The values that follow come from patent US20240358767A1, “STEM CELL DIFFERENTIATION AND CHEMICAL COMPOUNDS” (VERTEX PHARMACEUTICALS INCORPORATED, priority 2021, published 2024).

Structures are written as SMILES. Where “and” joins values, the source holds several entries; their conditions need not be identical. Equal entries are not always repeated. Where two headings read alike, the source gives them in different places.

The subject of data set [1] is Stem cells. Put plainly: 384-well screen of small molecule compounds for Stage 1 differentiation to Sox17-positive definitive endoderm cells (immunostaining, DAPI). As to conditions: for Relative to 100 ng/mL AA (percentage of Sox17-positive cells normalized by the percentage with 100 ng/mL AA): Stage 1 condition with 10 ng/mL AA and the test compound, 384-well plates; for signal in Oct 4 channel / signal in Sox17 channel: 10 ng/mL AA plus test compound, about 8 concentrations, dose-responsive manner; for nuclear blebbing in the resulting cell population: visual inspection.

In data set [2] the test system is Stem cells.
Data set [3] addresses EZH2 (Homo sapiens, UniProt Q15910). As to conditions: cited from earlier work.
Data set [4] concerns human stem cells. Put plainly: Stage 1 differentiation of stem cells (Version A protocol), flow cytometry of Oct4 and Sox17 at completion of Stage 1 (S1C). Type of data set: cell-based. The method, then: (§1) An exemplary base differentiation protocol, Version A, according to the present disclosure, was used for differentiating human stem cells into mature β cells capable of releasing insulin in response to glucose challenge in vitro.
(§2) Version A protocol is a 6-stage stepwise protocol. With Version A protocol, stem cells were treated with reagents in a manner similar to the Version A described in Example 1 of U.S. Patent Publication No. US20220090020A1, which is incorporated by reference herein in its entirety. In some experiments, Version A was modified such that 100 ng/mL Activin A at Stage 1 was replaced with a different concentration of Activin A as described below.
(§3) In one experiment, differentiation of the stem cells was initiated in spinner flasks using Version A protocol, and three different concentrations of Activin A (“AA”), 100 ng/mL (100%), 10 ng/mL (10%), and 5 ng/mL (5%), applied throughout the three days of Stage 1 were tested, while the remaining differentiation steps were kept the same. On QC days, e.g., upon completion of Stage 1 (“S1C”), completion of Stage 3 (“S3C”), or completion of Stage 5 (“S5C”), the cells were examined for their morphology and cell constituents. Specifically, 5 mL of cell cluster suspension solution were taken from the spinner flask, with 1 mL suspension aliquoted into a 24 well plate. Pictures of the cell clusters in the 24-well plate were taken under brightfield microscope. The cell clusters in the remaining 4 mL suspension were dispersed with TrypLE Express (Life Technologies; 12,604,013) at 37° C. for 20 min, fixed with 4% PFA for 20 mins at 4° C., blocked for 1 hour in FACS buffer (5% Donkey Serum and 0.05% Triton-100 in PBS) at room temperature, and stained with various antibodies against cell markers. Stained cells were then measured using an Accuri 6 flow cytometer (BD Biosciences) and analyzed using FlowJo software.
In another experiment, a dose-response test was conducted to examine the effects of different concentrations of Activin A at Stage 1 on stem cell differentiation. Five different concentrations of Activin A were tested: 100 ng/mL (100%), 20 ng/mL (20%), 10 ng/mL (10%), 5 ng/mL (5%), and 0 ng/mL (0%).
(§4) In one experiment, four different conditions for Stage 1 differentiation were tested: 100% Activin A, 10% Activin A, 10% Activin A plus GSK-690693 (“GSK”), or 10% Activin A plus BYL719 (“BYL”). Characterization of cell morphology and cell constituents were conducted similarly as described in EXAMPLE 1. The experiment was repeated for four times. Table 3 summarizes the quantification of flow cytometry analysis results at S1C, S3C, and S5C, and total viable cell yield at S5C for the four runs. In all the four runs, 0.1 μM […] or 0.04 μM BYL719 was applied for 3 days of Stage 1, except that in the last two runs, Run 4 and Run 5, 0.04 μM of BYL719 was applied for only 2 days (days S1d1 and S1d2).
(§5) In one experiment, six different conditions for Stage 1 differentiation were tested: 100% Activin A, 10% Activin A, 10% Activin A plus GSK-690693, 10% Activin A plus BYL719, 10% Activin A plus GSK-690693 and BYL719, or 100% Activin A plus GSK-690693 and BYL719. Characterization of cell morphology and cell constituents were conducted similarly as described in EXAMPLE 1. FIGS. 2A-5E and Table 4 summarize the characterizations of the cells obtained under the six differentiation conditions at different stages.

In data set [5] the test system is human stem cells. The data set is described as follows: Version A differentiation, flow cytometry of Pdx1, Cdx2 and Sox2 at completion of Stage 3 (S3C). The format is cell-based. The procedure: as §1, §2, §3, §4, §5
Background: In flow cytometry, cells or beads pass a laser one at a time.

Data set [6] concerns human stem cells. Put plainly: Version A differentiation, flow cytometry of Nkx6.1 and Isl1 at completion of Stage 5 (S5C). Type of data set: cell-based. The method, then: as §1, §2, §3, §4, §5
Data set [7] has as its system human stem cells. Put plainly: Total viable cell yield at S5C. As to conditions: 0.1 μM GSK for 3 days of Stage 1 plus 10% AA, Runs 4-5, listed as GSK. Type of data set: cell-based. The method, then:
as §1, §2, §4

For data set [8], the system named is human stem cells. Put plainly: Version A differentiation, flow cytometry of Nkx6.1 and Isl1 on day 7 of Stage 6 (S6d7). Type of data set: cell-based. The following applies: for Markers on S6d7 Isl1 + /Nkx6.1+ / Markers on S6d7 Isl1 + /Nkx6.1−: 10% AA plus the compound(s) at Stage 1. The procedure:
as §1, §2, §3, §5
In another experiment, the effects of the aforementioned six different conditions for Stage 1 differentiation on Stage 6 differentiation were tested under two Stage 6 medium regimens: regimen 1 (Table 5) and regimen 2 (Table 6).

Setting [9] is: 10% AA (10 ng/mL Activin A) plus the compound(s) at Stage 1.
Setting [10] is: 0.1 μM GSK for 3 days of Stage 1 plus 10% AA (10 ng/mL Activin A), Runs 3-5, listed as GSK.

Sequence of EZH2 (Q15910 whole entry, species assumed): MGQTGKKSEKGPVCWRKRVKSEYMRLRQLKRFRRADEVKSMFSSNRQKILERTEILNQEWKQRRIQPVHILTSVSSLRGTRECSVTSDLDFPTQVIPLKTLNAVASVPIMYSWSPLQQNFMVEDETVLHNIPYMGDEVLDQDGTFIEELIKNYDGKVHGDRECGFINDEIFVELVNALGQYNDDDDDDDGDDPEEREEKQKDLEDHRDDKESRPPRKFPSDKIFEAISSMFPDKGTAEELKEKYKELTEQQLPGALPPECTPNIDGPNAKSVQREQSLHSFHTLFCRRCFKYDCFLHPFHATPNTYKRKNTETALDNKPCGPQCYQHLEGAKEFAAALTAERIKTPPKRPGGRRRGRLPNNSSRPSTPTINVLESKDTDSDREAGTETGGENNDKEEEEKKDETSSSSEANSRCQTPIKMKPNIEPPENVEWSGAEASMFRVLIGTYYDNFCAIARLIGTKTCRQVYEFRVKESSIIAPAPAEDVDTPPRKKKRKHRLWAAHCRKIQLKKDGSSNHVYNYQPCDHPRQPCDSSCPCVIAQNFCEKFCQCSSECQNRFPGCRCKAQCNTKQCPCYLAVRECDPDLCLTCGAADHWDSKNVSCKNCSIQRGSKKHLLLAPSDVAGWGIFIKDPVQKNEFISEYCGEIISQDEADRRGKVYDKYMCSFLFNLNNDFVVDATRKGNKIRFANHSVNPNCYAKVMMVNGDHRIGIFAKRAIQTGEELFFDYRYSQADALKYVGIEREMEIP
Sequence of EZH2 (O75530 whole entry partner, species assumed): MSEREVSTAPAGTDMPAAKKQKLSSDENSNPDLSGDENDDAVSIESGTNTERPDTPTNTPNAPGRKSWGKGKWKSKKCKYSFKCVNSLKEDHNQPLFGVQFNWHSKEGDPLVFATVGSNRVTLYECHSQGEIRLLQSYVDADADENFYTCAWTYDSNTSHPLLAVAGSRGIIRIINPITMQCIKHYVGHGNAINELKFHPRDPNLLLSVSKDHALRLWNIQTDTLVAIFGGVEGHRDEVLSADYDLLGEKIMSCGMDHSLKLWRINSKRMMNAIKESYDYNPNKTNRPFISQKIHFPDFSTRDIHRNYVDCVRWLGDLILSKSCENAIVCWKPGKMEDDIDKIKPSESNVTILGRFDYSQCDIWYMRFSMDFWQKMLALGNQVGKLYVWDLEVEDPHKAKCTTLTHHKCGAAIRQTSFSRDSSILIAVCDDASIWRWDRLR
Sequence of EZH2 (Q15022 whole entry partner, species assumed): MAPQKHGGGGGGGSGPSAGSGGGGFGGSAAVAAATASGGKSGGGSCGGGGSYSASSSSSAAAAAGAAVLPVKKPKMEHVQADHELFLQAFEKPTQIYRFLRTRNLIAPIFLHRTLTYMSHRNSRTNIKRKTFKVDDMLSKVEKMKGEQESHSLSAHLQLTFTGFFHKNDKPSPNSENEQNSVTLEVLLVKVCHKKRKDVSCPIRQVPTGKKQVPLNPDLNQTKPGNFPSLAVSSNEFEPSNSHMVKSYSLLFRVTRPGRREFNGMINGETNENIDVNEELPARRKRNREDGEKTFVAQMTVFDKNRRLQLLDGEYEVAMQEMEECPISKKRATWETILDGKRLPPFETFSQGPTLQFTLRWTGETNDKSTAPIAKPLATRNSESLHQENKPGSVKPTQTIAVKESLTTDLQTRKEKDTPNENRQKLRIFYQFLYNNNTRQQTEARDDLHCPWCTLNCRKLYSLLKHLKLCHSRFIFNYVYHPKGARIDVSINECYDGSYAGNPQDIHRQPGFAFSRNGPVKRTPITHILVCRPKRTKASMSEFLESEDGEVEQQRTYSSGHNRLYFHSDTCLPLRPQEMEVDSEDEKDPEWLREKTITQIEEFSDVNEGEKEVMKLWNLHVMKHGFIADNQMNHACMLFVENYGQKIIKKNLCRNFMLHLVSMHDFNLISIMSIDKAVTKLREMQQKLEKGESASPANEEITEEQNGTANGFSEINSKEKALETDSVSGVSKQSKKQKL

Turning to `Cc1c(CN2CCN(C(=O)[C@H](C)O)CC2)sc2c(N3CCOCC3)nc(-c3cnc(N)nc3)nc12` [Apitolisib], the “Relative to 100 ng/mL AA (percentage of Sox17-positive cells normalized by the percentage with 100 ng/mL AA)” value in data set [1] is on record as 168%.

For `Cc1nc2c(-c3cnc(N)nc3)nc(N3CCOCC3)nc2n1C(C)C` [VS-5584], in data set [2], the “nuclear blebbing in the resulting cell population” value (from here on “nuclear blebbing”) is “not to induce”.

For the compound `COc1ncc(-c2ccc3nccc(-c4ccnnc4)c3c2)cc1NS(=O)(=O)c1ccc(F)cc1F` [Omipalisib], in data set [1], the “signal in Oct 4 channel” value is recorded as “decrease”, the “signal in Sox17 channel” value was “increase”, the “Relative to 100 ng/mL AA (percentage of Sox17-positive cells normalized by the percentage with 100 ng/mL AA)” value is 75% and the “nuclear blebbing” value is listed as “not to induce”.

As to `Nc1nc(-c2nn(Cc3ccccc3F)c3ncccc23)ncc1C1CC1` [BAY 41-2272], in data set [1], the “signal in Oct 4 channel” value was “decrease”, the “signal in Sox17 channel” value is on record as “increase”, the “Relative to 100 ng/mL AA (percentage of Sox17-positive cells normalized by the percentage with 100 ng/mL AA)” value amounted to 145% and the “nuclear blebbing” value was “not to induce”.

`CC(C)N1CCN(Cc2cnc(-c3cc(-c4cccc5[nH]ccc45)cc4[nH]ncc34)o2)CC1` [Nemiralisib]: in data set [1], the “signal in Oct 4 channel” value is “decrease”, the “signal in Sox17 channel” value is “increase” and the “nuclear blebbing” value is recorded as “not to induce”.

Turning to `O=C(c1ccc(-c2nc3ccc(F)cc3o2)cc1)N1CCN(C(=O)C2(O)CC2)CC1` [FT113], the “Relative to 100 ng/mL AA (percentage of Sox17-positive cells normalized by the percentage with 100 ng/mL AA)” value in data set [1] worked out at 64%.

Turning to `COc1ccc(-c2sc(NC(=O)C(C)(C)C)nc2C)cc1S(=O)(=O)Nc1ccc(O)cc1` [PI4KIIIbeta-IN-10], in data set [1], the “signal in Oct 4 channel” value is “decrease”, the “signal in Sox17 channel” value was “increase” and the “nuclear blebbing” value is recorded as “not to induce”.

With `COc1ccc(-c2ccc3c(N4CCOC[C@@H]4C)nc(N4CCOC[C@@H]4C)nc3n2)cc1CO` [AZD8055], in data set [1], the “signal in Oct 4 channel” value is recorded as “decrease”, the “signal in Sox17 channel” value is “increase”, the “Relative to 100 ng/mL AA (percentage of Sox17-positive cells normalized by the percentage with 100 ng/mL AA)” value turned out to be 117% and the “nuclear blebbing” value is “not to induce”.

As to `CCCc1cc(C)[nH]c(=O)c1CNC(=O)c1cc(-c2ccc(N3CCN(C(C)C)CC3)nc2)cc2c1cnn2C(C)C` [UNC1999], in data set [3], the “selectivity compared with GSK126” value was “less selective”.

As to `CC(C)n1c([C@H](C)Nc2ncnc(N)c2C#N)cc2cccc(-c3ccc(=O)n(C)c3)c2c1=O` [IPI-3063], in data set [1], the “signal in Oct 4 channel” value is on record as “decrease”, the “signal in Sox17 channel” value was “increase”, the “Relative to 100 ng/mL AA (percentage of Sox17-positive cells normalized by the percentage with 100 ng/mL AA)” value was 130% and the “nuclear blebbing” value is reported as “not to induce”.

As for `Nc1ccc(C(=O)Nc2cccc(-c3nc(N4CCOCC4)c4oc5ncccc5c4n3)c2)cn1` [YM201636], in data set [1], the “signal in Oct 4 channel” value is given as “decrease” and the “signal in Sox17 channel” value is “increase”.

With `CC[C@H](C)n1cc(C)c2c(C(=O)NCc3c(C)cc(C)[nH]c3=O)cc(-c3ccc(N4CCNCC4)nc3)cc21` [GSK126], the “selectivity over EZH1” value in data set [3] (EZH2 vs EZH1) is recorded as 150 fold.

As for `CCN1CCN(Cc2ccc(C(=O)Nc3ccc(C)c(Oc4ccc5c(c4)CC(=O)N5)c3)cc2C(F)(F)F)CC1` [DDR1-IN-1], in data set [1], the “signal in Oct 4 channel” value was “decrease”, the “signal in Sox17 channel” value is given as “increase”, the “Relative to 100 ng/mL AA (percentage of Sox17-positive cells normalized by the percentage with 100 ng/mL AA)” value is 120% and the “nuclear blebbing” value is “not to induce”.

For the compound `Cc1c(CN2CCN(S(C)(=O)=O)CC2)sc2c(N3CCOCC3)nc(-c3cnc(N)nc3)nc12` [GNE-477], in data set [1], the “signal in Oct 4 channel” value is given as “decrease”, the “signal in Sox17 channel” value is given as “increase”, the “Relative to 100 ng/mL AA (percentage of Sox17-positive cells normalized by the percentage with 100 ng/mL AA)” value is recorded as 160% and the “nuclear blebbing” value is “not to induce”.

For the compound `O=C(Nc1cccc2cccnc12)c1ccc(N2C(=O)[C@@H]3[C@H](C2=O)[C@@H]2C=C[C@H]3C2)cc1` [IWR-1-endo], the “nuclear blebbing” value in data set [2] was “not to induce”. In data set [1], the “signal in Oct 4 channel” value is reported as “decrease” and the “signal in Sox17 channel” value is reported as “increase”.

Consider `CCn1c(-c2nonc2N)nc2c(C#CC(C)(C)O)ncc(OC[C@H]3CCCNC3)c21` [GSK-690693], for which the “S1C Sox17+/Oct4−” value in data set [4] (0.1 μM GSK for 3 days of Stage 1 plus 10% AA (10 ng/mL Activin A), Runs 2-5, listed as GSK) is 69 and 84.9 and 91.6 and 60. In addition, in data set [4] (setting [9]), the “S1C Sox17 + /Oct4+” value was found to be 2.86% and the “S1C Sox17+/Oct4−” value is on record as 91.6%. Besides, in data set [5] (setting [10]), the “S3C Pdx1” value was 57.5 and 91.1 and 89.4. In data set [5] (setting [9]), the “S3C Pdx1 + /Cdx2+” value turned out to be 6.70% and the “S3C Pdx1 + /Sox2+” value came out at 37.3%. Further, in data set [6] (setting [10]), the “S5C Nkx6.1+/Isl1+” value was 31.1 and 35.6 and 28.5. Besides, the “S5C Nkx6.1+/Isl1+” value in data set [6] (setting [9]) was 28.5%. Moreover, in data set [7], the St5C yield is 3.02e+06 mL⁻¹ and 5.4416e+06 mL⁻¹. Also, in data set [8] (10% AA (10 ng/mL Activin A) plus the compound(s) at Stage 1, day 7 of Stage 6), the “S6d7 Nkx6.1 + /Isl1+” value was 34.8%. Also, in data set [8] (Stage 6 Regimen 1), the “Markers on S6d7 Isl1 + /Nkx6.1+” value amounted to 34.8 and the “Markers on S6d7 Isl1 + /Nkx6.1−” value is 8.17. Besides, in data set [8] (Stage 6 Regimen 2), the “Markers on S6d7 Isl1 + /Nkx6.1+” value amounted to 36.3 and the “Markers on S6d7 Isl1 + /Nkx6.1−” value was found to be 8.17. Besides, in data set [1], the “signal in Oct 4 channel” value is listed as “decrease”, the “signal in Sox17 channel” value is on record as “increase”, the “Relative to 100 ng/mL AA (percentage of Sox17-positive cells normalized by the percentage with 100 ng/mL AA)” value is on record as 119% and the “nuclear blebbing” value was “not to induce”.
